Laboratory results reported in patent US20230083012A1, “DIHYDROPYRIMIDINE DERIVATIVES AND USES THEREOF IN THE TREATMENT OF HBV INFECTION OR OF HBV-INDUCED DISEASES” (priority 2019, published 2023).

Columns and labels:
HBV = test: Anti-HBV activity in HepG2.2.15 cells (HBV DNA in culture medium by qPCR); format: cell-based; conditions: Hepatitis B virus, HepG2.2.15, 144 h, HepG2.2.15 cells, 6 days treatment, HBV DNA in culture medium quantified by real-time PCR; read-out: EC50
Outline: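 Secreted HBV DNA was measured by real-time PCR after 6-day compound exposure of HepG2.2.15 cells (2% FBS, 37 °C, re-dosed after 3 days), giving EC50 from 8-point 1:3 series starting at 10 or 1 uM. Cytotoxicity (CC50) run separately at lower cell density, top 100 uM.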

[1] = Cytotoxicity determination in HepG2.2.15 cells (CCK-8 cell viability); format: cell-based; conditions: human, 6 days treatment, CCK-8 assay, highest concentration 100 uM
Outline: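 Viability measured by CCK-8 absorbance (450 nm, 630 nm reference, 2.5 h at 37° C) after six days of treatment, medium and compound renewed on day 3. Top concentration 100 uM, eight threefold dilutions in triplicate; cells plated at 5,000/well in 2% FBS medium; CC50 derived.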

Row | SMILES | EC50 (HBV) [nM] | CC50 at 6 days [1] [nM]
1 | CCOC(=O)C1=C(CN2CC(F)(F)[C@@H]3[C@H]2CON3CCC(C)(C)C(=O)O)NC(c2nccs2)=N[C@@H]1c1ccc(F)c(F)c1C (single isomer, unassigned) [Compound 164, (cis)-4-(4-((6-(3,4-difluoro-2-methylphenyl)-5-(ethoxycarbonyl)-2-(thiazol-2-yl)-3,6-dihydropyrimidin-4-yl)methyl)-6,6-difluorohexahydro-1H-pyrrolo[3,2-c]isoxazol-1-yl)-2,2-dimethylbutanoic acid] | 3 | > 25000
2 | CCOC(=O)C1=C(CN2CC(F)(F)[C@@H]3[C@H]2CON3CCC(C)(C)C(=O)O)NC(c2nc(C)cs2)=N[C@H]1c1cccc(F)c1C (single isomer, unassigned) [Compound 165, (cis)-4-(4-((5-(ethoxycarbonyl)-6-(3-fluoro-2-methylphenyl)-2-(4-methylthiazol-2-yl)-3,6-dihydropyrimidin-4-yl)methyl)-6,6-difluorohexahydro-1H-pyrrolo[3,2-c]isoxazol-1-yl)-2,2-dimethylbutanoic acid] | 8 | > 50000
3 | CCOC(=O)C1=C(CN2CC(F)(F)[C@@H]3[C@H]2CON3CCC(C)(C)C(=O)O)NC(c2nccs2)=N[C@@H]1c1ccc(F)nc1C (single isomer, unassigned) [Compound 166, 4-((cis)-4-((5-(ethoxycarbonyl)-6-(6-fluoro-2-methylpyridin-3-yl)-2-(thiazol-2-yl)-3,6-dihydropyrimidin-4-yl)methyl)-6,6-difluorohexahydro-1H-pyrrolo[3,2-c]isoxazol-1-yl)-2,2-dimethylbutanoic acid] | 59 | > 100000
4 | COC(=O)C1=C(CN2CC(F)(F)[C@@H]3[C@H]2CON3CCC(C)(C)C(=O)O)NC(c2nccs2)=N[C@H]1c1cccc(F)c1F (single isomer, unassigned) [Compound 167, 4-((cis)-4-((6-(2,3-difluorophenyl)-5-(methoxycarbonyl)-2-(thiazol-2-yl)-3,6-dihydropyrimidin-4-yl)methyl)-6,6-difluorohexahydro-1H-pyrrolo[3,2-c]isoxazol-1-yl)-2,2-dimethylbutanoic acid] | 16.3 | > 100000
5 | COC(=O)C1=C(CN2CC(F)(F)[C@@H]3[C@H]2CON3CCC(C)(C)C(=O)O)NC(c2nccs2)=N[C@H]1c1ccc(F)cc1Cl (single isomer, unassigned) [Compound 168, 4-((cis)-4-((6-(2-chloro-4-fluorophenyl)-5-(methoxycarbonyl)-2-(thiazol-2-yl)-3,6-dihydropyrimidin-4-yl)methyl)-6,6-difluorohexahydro-1H-pyrrolo[3,2-c]isoxazol-1-yl)-2,2-dimethylbutanoic acid] | 9 | > 100000
6 | CCOC(=O)C1=C(CN2CC(F)(F)[C@@H]3[C@H]2CON3CCC(C)(C)C(=O)O)NC(c2nccs2)=N[C@H]1c1ccc(F)cc1Cl (single isomer, unassigned) [Compound 169, 4-((cis)-4-((6-(2-chloro-4-fluorophenyl)-5-(ethoxycarbonyl)-2-(thiazol-2-yl)-3,6-dihydropyrimidin-4-yl)methyl)-6,6-difluorohexahydro-1H-pyrrolo[3,2-c]isoxazol-1-yl)-2,2-dimethylbutanoic acid] | 5 | > 50000
7 | COC(=O)C1=C(CN2CC(F)(F)[C@@H]3[C@H]2CON3CCC(C)(C)C(=O)O)NC(c2nccs2)=N[C@H]1c1cccc(F)c1Cl (single isomer, unassigned) [Compound 170, (cis)-4-(4-((6-(2-chloro-3-fluorophenyl)-5-(methoxycarbonyl)-2-(thiazol-2-yl)-3,6-dihydropyrimidin-4-yl)methyl)-6,6-difluorohexahydro-1H-pyrrolo[3,2-c]isoxazol-1-yl)-2,2-dimethylbutanoic acid] | 8 | > 25000
8 | CCOC(=O)C1=C(CN2CC(F)(F)[C@@H]3[C@H]2CON3CCC(C)(C)C(=O)O)NC(c2nccs2)=NC1c1cccc(F)c1Cl (single isomer, unassigned) [Compound 171, (cis)-4-(4-((6-(2-chloro-3-fluorophenyl)-5-(ethoxycarbonyl)-2-(thiazol-2-yl)-3,6-dihydropyrimidin-4-yl)methyl)-6,6-difluorohexahydro-1H-pyrrolo[3,2-c]isoxazol-1-yl)-2,2-dimethylbutanoic acid] | 4 | 32300
9 | CCOC(=O)C1=C(CN2CC(F)(F)[C@@H]3[C@H]2CON3CC(C)(C)C(=O)O)NC(c2nccs2)=N[C@@H]1c1ccc(F)nc1C (single isomer, unassigned) [Compound 172, 3-((cis)-4-((5-(Ethoxycarbonyl)-6-(6-fluoro-2-methylpyridin-3-yl)-2-(thiazol-2-yl)-3,6-dihydropyrimidin-4-yl)methyl)-6,6-difluorohexahydro-1H-pyrrolo[3,2-c]isoxazol-1-yl)-2,2-dimethylpropanoic acid] | 33 | > 100000
10 | CCOC(=O)C1=C(CN2CC(F)(F)[C@@H]3[C@H]2CON3CCC(C)(C)C(=O)O)NC(c2nccs2)=N[C@H]1c1cccc(F)c1F (single isomer, unassigned) [Compound 173, 4-((cis)-4-((6-(2,3-difluorophenyl)-5-(ethoxycarbonyl)-2-(thiazol-2-yl)-3,6-dihydropyrimidin-4-yl)methyl)-6,6-difluorohexahydro-1H-pyrrolo[3,2-c]isoxazol-1-yl)-2,2-dimethylbutanoic acid] | 16 | > 100000
11 | CCOC(=O)C1=C(CN2CC(F)(F)[C@@H]3[C@H]2CON3CCC(C)(C)C(=O)O)NC(c2nc(C)cs2)=N[C@H]1c1ccc(F)c(F)c1F (single isomer, unassigned) [Compound 174, 4-((cis)-4-((5-(ethoxycarbonyl)-2-(4-methylthiazol-2-yl)-6-(2,3,4-trifluorophenyl)-3,6-dihydropyrimidin-4-yl)methyl)-6,6-difluorohexahydro-1H-pyrrolo[3,2-c]isoxazol-1-yl)-2,2-dimethylbutanoic acid] | 15 | > 50000
12 | CCOC(=O)C1=C(CN2CC(F)(F)[C@@H]3[C@H]2CON3CCC(C)(C)C(=O)O)NC(c2nccs2)=N[C@H]1c1ccc(F)c(F)c1F (single isomer, unassigned) [Compound 175, 4-((cis)-4-((5-(Ethoxycarbonyl)-2-(thiazol-2-yl)-6-(2,3,4-trifluorophenyl)-3,6-dihydropyrimidin-4-yl)methyl)-6,6-difluorohexahydro-1H-pyrrolo[3,2-c]isoxazol-1-yl)-2,2-dimethylbutanoic acid] | 8 | > 50000
13 | CCOC(=O)C1=C(CN2CC(F)(F)[C@@H]3[C@H]2CON3CC(C)(C)C(=O)O)NC(c2nccs2)=N[C@H]1c1cccc(F)c1C (single isomer, unassigned) [Compound 176] | 3 | 24800
14 | CCOC(=O)C1=C(CN2C[C@H](F)[C@H]3[C@@H]2CON3CCC(C)(C)C(=O)O)NC(c2nccs2)=N[C@H]1c1cccc(F)c1C (single isomer, unassigned) [Compound 177] | 15 | 24000
15 | CCOC(=O)C1=C(CN2CC(F)(F)[C@@H]3[C@H]2CON3C[C@@H](CC)C(=O)O)NC(c2nccs2)=N[C@H]1c1cccc(F)c1C (single isomer, unassigned) [Compound 178A] | 3.5 | > 50000
